# Tests used:
# [1] = Volatility of perfuming compounds (Tables 4 to 10), with top/middle/bottom note type; assay type: physicochemical
# Description: In some aspects, the first perfume accord comprises perfuming compounds having a volatility ranging from 70,000 to 100 μg/l in air. In some aspects, perfuming compounds having a volatility ranging from 70,000 to 100 μg/l in air are referred to as “top notes”.
# In some aspects, the second perfume accord comprises perfuming compounds having a volatility ranging from 99 to 50 μg/l in air. In some aspects, perfuming compounds having a volatility ranging from 99 to 50 μg/l in air are referred to as “middle notes”.
# In some aspects, the third perfume accord comprises perfuming compounds having a volatility ranging from 49 to 0.1 μg/l in air. In some aspects, perfuming compounds having a volatility ranging from 49 to 0.1 μg/l in air are referred to as “bottom notes”.
# Tables 4 to 10 describe top, middle and bottom note perfuming compounds for watery, green, fruity, citrus, sweet, gourmand and woody notes respectively.
# [2] = Odor threshold and odor value of perfuming compounds (Tables 4 to 10)
# [3] = Table 6, perfuming compounds having a fruity note
# [4] = Table 6, perfuming compounds having a fruity note, note type by volatility
# [5] = Table 7, citrus note, top, middle or bottom note
# [6] = note type (Top/Middle/Bottom) by volatility, perfuming compounds having a green note
# [7] = perfuming compounds having a green note
# [8] = Table 8, perfuming compounds having a sweet note
# [9] = Table 8, perfuming compounds having a sweet note, note type by volatility
# [10] = Table 9, perfuming compounds having a gourmand note, note type by volatility
# [11] = Table 10, perfuming compounds having a woody note, note type by volatility
Compound,"Volatility [1, 3] [μg/l air]","Type [1, 4]",other results
CC1CC(C)(c2ccccc2)OC(C)O1 (centres unmarked),113.83,"TOP (perfuming compounds having a volatility ranging from 70,000 to 100 μg/l in air are referred to as “top notes”)","Odor Threshold [2, 3]: 7.82E−03 μg/l air; Odor Value [2, 3]: 1.46E+04"
CC(C)=CCCC(C)=CCO,–,–,"Type [1, 5]: Middle"
C=CC(=C)CCC=C(C)C,15094.56,"TOP (perfuming compounds having a volatility ranging from 70,000 to 100 μg/l in air are referred to as “top notes”)",–
CCOC(=O)C1=C(C)C=CCC1(C)C,368.81,"TOP (perfuming compounds having a volatility ranging from 70,000 to 100 μg/l in air are referred to as “top notes”)",–
CCOC(=O)C12CCCC1C1CCC2C1 (centres unmarked),111.67,"TOP (perfuming compounds having a volatility ranging from 70,000 to 100 μg/l in air are referred to as “top notes”)","Type [1, 6]: Top; Volatility (μg/l air) [1, 7]: 111.67 μg/l air; Odor Threshold [2, 3]: 6.87E−05 μg/l air; Odor Value [2, 3]: 1.63E+06; Odor Threshold (μg/l air) [2, 7]: 6.87E−05 μg/l air"
CC1=CC[C@H](C(C)CC2CCCC2=O)CC1 (some centres unmarked),2.05,Bottom,"Volatility [1, 8]: 2.05 μg/l air; Type [1, 9]: Bottom; Volatility ([1]; Table 9, gourmand note): 2.05 μg/l air; Type [1, 10]: Bottom; Odor Threshold [2, 3]: 1.66E−04 μg/l air; Odor Value [2, 3]: 1.24E+04; Odor Threshold [2, 8]: 1.66E−04 μg/l air; Odor Value [2, 8]: 1.24E+04; Odor Threshold ([2]; Table 9, gourmand note): 1.66E−04 μg/l air"
C/C=C/C(=O)C1=C(C)CCCC1(C)C,81.66,Middle,"Type [1, 11]: Middle; Volatility ([1]; Table 10, woody note): 81.66 μg/l air; Odor Threshold [2, 3]: 2.18E−04 μg/l air; Odor Value [2, 3]: 3.75E+05; Odor Threshold ([2]; Table 10, woody note): 2.18E−04 μg/l air"
C/C=C(\C)C(=O)OCC/C=C\CC,–,–,"Type [1, 6]: Top; Volatility (μg/l air) [1, 7]: 168.78 μg/l air"
CC(C)=CCC/C(C)=C/CO,–,–,"Volatility (μg/l air) ([1]; Table 7, citrus note): 89.88 μg/l air; Type [1, 5]: Middle"
CC(C)=CCC/C(C)=C\CO,–,–,"Volatility (μg/l air) ([1]; Table 7, citrus note): 86.02 μg/l air; Type [1, 5]: Middle"
CCCOC(=O)[C@H](C)OC(C)(C)CC,995.16,"TOP (perfuming compounds having a volatility ranging from 70,000 to 100 μg/l in air are referred to as “top notes”)",–
C[C@H]1[C@@H]2C[C@H](C[C@@]13C=CC(=O)CC3)C2(C)C,4.14,Bottom,"Type [1, 11]: Bottom; Volatility ([1]; Table 10, woody note): 4.14 μg/l air; Odor Threshold [2, 3]: 6.32E−04 μg/l air; Odor Value [2, 3]: 6.54E+03; Odor Threshold ([2]; Table 10, woody note): 6.32E−04 μg/l air"
CC1(C)CCC[C@]2(C)[C@H]3CCO[C@]3(C)CC[C@@H]12,–,–,"Type [1, 11]: Bottom"
CCCCCC1(C)CCC(C)(C)C1=O (racemic),265.42,"TOP (perfuming compounds having a volatility ranging from 70,000 to 100 μg/l in air are referred to as “top notes”)",–
C=C1CCCC(C)(C)C1C(=O)OC (racemic),1089.25,"TOP (perfuming compounds having a volatility ranging from 70,000 to 100 μg/l in air are referred to as “top notes”)",–
CC/C=C\C[C@H]1C(=O)CC[C@@H]1CC(=O)OC (racemic),1.59,Bottom,–
CC1CCC(=O)O1 (racemic) [(+−)-4-PENTANOLIDE],2355.15,"TOP (perfuming compounds having a volatility ranging from 70,000 to 100 μg/l in air are referred to as “top notes”)","Volatility (μg/l air) ([1]; Table 7, citrus note): 2355.15 μg/l air; Type [1, 5]: Top"
CCCCCCCC1CCC(=O)O1 (racemic) [(+−)-5-heptyldihydro-2(3H)-furanone],–,–,"Odor Threshold [2, 3]: 3.16E−05 μg/l air; Odor Value [2, 3]: 1.16E+05; Odor Threshold [2, 8]: 3.16E−05 μg/l air; Odor Value [2, 8]: 1.16E+05; Odor Threshold ([2]; Table 9, gourmand note): 3.16E−05 μg/l air"
"CC1(C)C2CC[C@@]1(C)C(=O)C2 (single isomer, unassigned; (+))",555.04,"TOP (perfuming compounds having a volatility ranging from 70,000 to 100 μg/l in air are referred to as “top notes”)",–
"CC(=O)OC(C)(C)Cc1ccccc1 [1,1-DIMETHYL-2-PHENYLETHYL ACETATE]",198.02,"TOP (perfuming compounds having a volatility ranging from 70,000 to 100 μg/l in air are referred to as “top notes”)",–
CCCc1ccc(OC)cc1 [1-METHOXY-4-PROPYLBENZENE],629.29,"TOP (perfuming compounds having a volatility ranging from 70,000 to 100 μg/l in air are referred to as “top notes”)",–
CCCCCC(C)=O [2-HEPTANONE],26409.73,"TOP (perfuming compounds having a volatility ranging from 70,000 to 100 μg/l in air are referred to as “top notes”)",–

Compound,"Volatility [1, 3] [μg/l air]","Type [1, 4]",other results
COc1ccc2ccccc2c1 [2-METHOXYNAPHTHALENE],–,–,"Odor Threshold [2, 8]: 1.02E−05 μg/l air; Odor Value [2, 8]: 5.00E+06; Odor Threshold ([2]; Table 9, gourmand note): 1.02E−05 μg/l air"
CCCCCCC(C)=O [2-OCTANONE],6639.71,"TOP (perfuming compounds having a volatility ranging from 70,000 to 100 μg/l in air are referred to as “top notes”)",–
"CC(=O)OCCC(C)CC(C)(C)C (centres unmarked) [3,5,5-TRIMETHYLHEXYL ACETATE]",1461.80,"TOP (perfuming compounds having a volatility ranging from 70,000 to 100 μg/l in air are referred to as “top notes”)",–
"CC(C)(C)Cc1cccnc1 [3-(2,2-DIMETHYLPROPYL)PYRIDINE]",516.21,"TOP (perfuming compounds having a volatility ranging from 70,000 to 100 μg/l in air are referred to as “top notes”)",–
CC(C)CC(=O)O [3-METHYLBUTANOIC ACID],–,–,"Odor Threshold ([2]; Table 10, woody note): 2.23E−04 μg/l air"
CCCCCC(=O)CC [3-OCTANONE],6787.60,"TOP (perfuming compounds having a volatility ranging from 70,000 to 100 μg/l in air are referred to as “top notes”)",–
CCOc1cc(C=O)ccc1O [3-ethoxy-4-hydroxybenzaldehyde],–,–,"Volatility [1, 8]: 0.11 μg/l air; Type [1, 9]: Bottom"
Cc1ccc(OC(=O)C(C)C)cc1 [4-METHYLPHENYL ISOBUTYRATE],167.81,"TOP (perfuming compounds having a volatility ranging from 70,000 to 100 μg/l in air are referred to as “top notes”)",–
CCC(=O)CC(C)CC (centres unmarked) [5-METHYL-3-HEPTANONE],14141.42,"TOP (perfuming compounds having a volatility ranging from 70,000 to 100 μg/l in air are referred to as “top notes”)",–
CCCCCCC1CCCC(=O)O1 (centres unmarked) [6-hexyltetrahydro-2H-pyran-2-one],4.64,Bottom,"Volatility [1, 8]: 4.64 μg/l air; Type [1, 9]: Bottom; Volatility ([1]; Table 9, gourmand note): 4.64 μg/l air; Type [1, 10]: Bottom"
CC/C=C\CCCCCO [(Z)-6-NONEN-1-OL],–,–,"Volatility (μg/l air) ([1]; Table 4, watery note): 6.91 μg/l air; Type ([1]; Table 4, watery note, top, middle or bottom note): bottom (perfuming compounds having a volatility ranging from 49 to 0.1 μg/l in air are referred to as “bottom notes”); Type [1, 6]: Bottom; Volatility (μg/l air) [1, 7]: 6.91 μg/l air"
C=CCOC(=O)CCCCC [ALLYL HEXANOATE],941.49,"TOP (perfuming compounds having a volatility ranging from 70,000 to 100 μg/l in air are referred to as “top notes”)",–
O=Cc1ccccc1 [BENZALDEHYDE],–,–,"Volatility [1, 8]: 8207.00 μg/l air; Type [1, 9]: Top; Type [1, 6]: Top; Volatility (μg/l air) [1, 7]: 8207.00 μg/l air"
CCOC(=O)c1ccccc1 [ETHYL BENZOATE],1285.12,"TOP (perfuming compounds having a volatility ranging from 70,000 to 100 μg/l in air are referred to as “top notes”)",–
CCOC(=O)C(C)C [ETHYL ISOBUTYRATE],132964.09,"TOP (perfuming compounds having a volatility ranging from 70,000 to 100 μg/l in air are referred to as “top notes”)",–
CCOC(=O)Cc1ccccc1 [ETHYL PHENYLACETATE],269.77,"TOP (perfuming compounds having a volatility ranging from 70,000 to 100 μg/l in air are referred to as “top notes”)",–
CC(=O)OCc1ccccc1 [benzyl acetate],507.38,"TOP (perfuming compounds having a volatility ranging from 70,000 to 100 μg/l in air are referred to as “top notes”)",–
"CCOC(=O)/C(C)=C/C(C)C [ethyl (2E)-2,4-dimethyl-2-pentenoate]",1618.37,"TOP (perfuming compounds having a volatility ranging from 70,000 to 100 μg/l in air are referred to as “top notes”)",–
CCCCCCC(=O)OCC [ethyl heptanoate],3052.89,"TOP (perfuming compounds having a volatility ranging from 70,000 to 100 μg/l in air are referred to as “top notes”)",–
COC(=O)C=C1CCCC1 [methyl cyclopentylideneacetate],1091.46,"TOP (perfuming compounds having a volatility ranging from 70,000 to 100 μg/l in air are referred to as “top notes”)",–
"(+−)-(3E)-3-methyl-4-(2,6,6-trimethyl-2-cyclohexen-1-yl)-3-buten-2-one (A) + (+−)-(1E)-1-(2,6,6-trimethyl-2-cyclohexen-1-yl)-1-penten-3-one (B)",–,–,"Type [1, 5]: Bottom"

# From patent US20240301319A1, “PERFUMING COMPOSITIONS” (FIRMNICH SA, priority 2017, published 2024)
